Data reported in PubChem BioAssay AID248 (DTP/NCI, 2004).
Values joined by “and” are separate entries in the source; they are usually repeats but may differ in a detail not shown here. Equal entries are not always repeated. Toxic doses and inconclusive results are not listed. Cut-off read from the data, not from the text of the source: active = T/C of 150% or more; inactive = T/C below 125%.

Tested on: L1210 leukemia ip in BDF1 mice, survival T/C
Experiment: NCI In Vivo Anticancer Drug Screen. Data for tumor model L1210 Leukemia (intraperitoneal) in B6D2F1 (BDF1) mice
Conditions: endpoint: mean survival time, higher = longer survival
Summary of the method: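 Antitumor effect is assessed in tumor-bearing animals. Survival in the compound arm is compared with a vehicle-dosed control arm and expressed as their quotient.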

[1] = dose: 100.0 mg/kg/injection, schedule: Q04DX002 (ip), vehicle: Klucel (hydroxypropylcellulose) (HPC)
[2] = dose: 100.0 mg/kg/injection, schedule: Q01DX001 (ip), vehicle: Klucel (hydroxypropylcellulose) (HPC)
[3] = dose: 100.0 mg/kg/injection, schedule: Q01DX009 (ip), vehicle: Klucel (hydroxypropylcellulose) (HPC)
[4] = dose: 200.0 mg/kg/injection, schedule: Q01DX001 (ip), vehicle: Klucel (hydroxypropylcellulose) (HPC)
[5] = dose: 400.0 mg/kg/injection, schedule: Q01DX001 (ip), vehicle: Klucel (hydroxypropylcellulose) (HPC)
[6] = dose: 100.0 mg/kg/injection, schedule: Q01DX001 (ip), vehicle: saline
[7] = dose: 200.0 mg/kg/injection, schedule: Q01DX001 (ip), vehicle: saline
[8] = dose: 400.0 mg/kg/injection, schedule: Q01DX001 (ip), vehicle: saline

Measured: T/C

CSc1ccc(B2Oc3cc(Cl)c(Cl)cc3O2)cc1
inactive: dose: 100.0 mg/kg/injection, schedule: Q04DX003 (ip), vehicle: alcohol 124 % of control | dose: 200.0 mg/kg/injection, schedule: Q04DX003 (ip), vehicle: alcohol 95 % of control | dose: 400.0 mg/kg/injection, schedule: Q04DX003 (ip), vehicle: alcohol 100 % of control

c1cc2n(c1)Cc1cc3c(cc1NC2)OCO3
inactive: dose: 25.0 mg/kg/injection, schedule: Q04DX002 (ip), vehicle: Klucel (hydroxypropylcellulose) (HPC) 90 % of control | dose: 50.0 mg/kg/injection, schedule: Q04DX002 (ip), vehicle: Klucel (hydroxypropylcellulose) (HPC) 86 % of control | [1] 94 % of control

CCN(CC)/N=N/c1nc[nH]c1C(N)=O
inactive: dose: 12.5 mg/kg/injection, schedule: Q01DX009 (ip), vehicle: water 100 % of control | dose: 25.0 mg/kg/injection, schedule: Q01DX009 (ip), vehicle: Klucel (hydroxypropylcellulose) (HPC) 117 % of control | dose: 25.0 mg/kg/injection, schedule: Q01DX009 (ip), vehicle: water 101 % of control | dose: 50.0 mg/kg/injection, schedule: Q01DX001 (ip), vehicle: water 102 % of control | dose: 50.0 mg/kg/injection, schedule: Q01DX009 (ip), vehicle: Klucel (hydroxypropylcellulose) (HPC) 111 % of control | dose: 50.0 mg/kg/injection, schedule: Q01DX009 (ip), vehicle: water 98 % of control and 104 % of control | dose: 50.0 mg/kg/injection, schedule: Q04DX003 (ip), vehicle: water 101 % of control | [2] 104 % of control | dose: 100.0 mg/kg/injection, schedule: Q01DX001 (ip), vehicle: water 103 % of control | [3] 114 % of control | dose: 100.0 mg/kg/injection, schedule: Q01DX009 (ip), vehicle: water 105 % of control and 86 % of control | dose: 100.0 mg/kg/injection, schedule: Q04DX003 (ip), vehicle: Klucel (hydroxypropylcellulose) (HPC) 102 % of control | dose: 100.0 mg/kg/injection, schedule: Q04DX003 (ip), vehicle: water 102 % of control | [4] 101 % of control | dose: 200.0 mg/kg/injection, schedule: Q01DX001 (ip), vehicle: water 100 % of control | dose: 200.0 mg/kg/injection, schedule: Q04DX003 (ip), vehicle: Klucel (hydroxypropylcellulose) (HPC) 108 % of control | dose: 200.0 mg/kg/injection, schedule: Q04DX003 (ip), vehicle: water 110 % of control | [5] 113 % of control | dose: 400.0 mg/kg/injection, schedule: Q01DX001 (ip), vehicle: water 113 % of control | dose: 400.0 mg/kg/injection, schedule: Q04DX003 (ip), vehicle: Klucel (hydroxypropylcellulose) (HPC) 119 % of control | dose: 400.0 mg/kg/injection, schedule: Q04DX003 (ip), vehicle: water 111 % of control

O=C1c2ccccc2C(=O)N1c1ccccc1
inactive: [3] 98 % of control | [1] 91 % of control | dose: 200.0 mg/kg/injection, schedule: Q01DX009 (ip), vehicle: Klucel (hydroxypropylcellulose) (HPC) 98 % of control | dose: 200.0 mg/kg/injection, schedule: Q04DX002 (ip), vehicle: Klucel (hydroxypropylcellulose) (HPC) 94 % of control | dose: 400.0 mg/kg/injection, schedule: Q01DX009 (ip), vehicle: Klucel (hydroxypropylcellulose) (HPC) 95 % of control | dose: 400.0 mg/kg/injection, schedule: Q04DX002 (ip), vehicle: Klucel (hydroxypropylcellulose) (HPC) 88 % of control

O=c1[nH]c(=O)n(C2CC(O)C(CO)O2)cc1Br (stereo not given)
inactive: dose: 50.0 mg/kg/injection, schedule: Q02DX Z (ip), vehicle: carboxymethylcellulose (CMC) 108 % of control | dose: 100.0 mg/kg/injection, schedule: Q02DX Z (ip), vehicle: carboxymethylcellulose (CMC) 107 % of control | dose: 150.0 mg/kg/injection, schedule: Q02DX Z (ip), vehicle: carboxymethylcellulose (CMC) 109 % of control | dose: 200.0 mg/kg/injection, schedule: Q02DX Z (ip), vehicle: carboxymethylcellulose (CMC) 113 % of control | dose: 250.0 mg/kg/injection, schedule: Q02DX Z (ip), vehicle: carboxymethylcellulose (CMC) 109 % of control | dose: 300.0 mg/kg/injection, schedule: Q02DX Z (ip), vehicle: carboxymethylcellulose (CMC) 113 % of control | dose: 400.0 mg/kg/injection, schedule: Q02DX Z (ip), vehicle: carboxymethylcellulose (CMC) 110 % of control | dose: 500.0 mg/kg/injection, schedule: Q02DX Z (ip), vehicle: carboxymethylcellulose (CMC) 114 % of control | dose: 600.0 mg/kg/injection, schedule: Q01DX009 (ip), vehicle: carboxymethylcellulose (CMC) 123 % of control | dose: 600.0 mg/kg/injection, schedule: Q02DX Z (ip), vehicle: carboxymethylcellulose (CMC) 122 % of control | dose: 800.0 mg/kg/injection, schedule: Q01DX Z (ip), vehicle: carboxymethylcellulose (CMC) 122 % of control | dose: 1000.0 mg/kg/injection, schedule: Q01DX Z (ip), vehicle: carboxymethylcellulose (CMC) 113 % of control | dose: 1800.0 mg/kg/injection, schedule: Q01DX009 (ip), vehicle: carboxymethylcellulose (CMC) 102 % of control

CCN(C(C)=O)c1ccc([N+](=O)[O-])cc1
inactive: [6] 105 % of control | [7] 96 % of control | [8] 105 % of control

CC(C)(C#N)CCCCCC(C)(C)C#N
inactive: dose: 50.0 mg/kg/injection, schedule: Q01DX001 (ip), vehicle: saline 100 % of control | [6] 96 % of control | [7] 100 % of control | [8] 97 % of control

CO[N+](=O)c1cc(C(C)(C)C)c([O-])c(C(C)(C)C)c1
inactive: [2] 88 % of control | [4] 88 % of control | [5] 92 % of control

CCCCOc1ccc(/C=N\N=C\c2ccc(OCCCC)cc2)cc1
inactive: dose: 100.0 mg/kg/injection, schedule: Q01DX009 (ip), vehicle: saline with Tween-80 90 % of control | dose: 200.0 mg/kg/injection, schedule: Q01DX009 (ip), vehicle: saline with Tween-80 88 % of control

O=C(Nc1cccc(C(F)(F)F)c1)Nc1c(Oc2ccc(Cl)c(Cl)c2)ccc(Cl)c1S(=O)(=O)O
inactive: dose: 100.0 mg/kg/injection, schedule: Q04DX003 (ip), vehicle: saline 103 % of control | dose: 200.0 mg/kg/injection, schedule: Q04DX003 (ip), vehicle: saline 94 % of control
